# Source: a melting point compilation (Tetko et al.; mined from patent text by program, amines drawn as free bases though some values may be those of a salt)
row,Compound,melting point [°C]
1,N#CC1=C(C2CCCC2)Nc2n[nH]cc2C1c1ccccc1Cl (stereo not drawn),225
2,CNC(=O)/C=C1\CCc2c(Cl)cc(F)cc21,173 to 175
3,CCN(c1ccc(C(=O)c2ccccc2)cc1N)C1CCCCC1,106 to 108
4,O[C@@H]1CN(C[C@H](O)c2ccccc2)CC[C@H]1CCOC(c1ccccc1)c1ccccc1,84 to 86
5,CCc1nc(-c2ccnnc2)no1,73 to 74
6,COc1cccnc1CSCCNC(=C[N+](=O)[O-])SC,87.5 to 88.5
7,Cc1cc([N+](=O)[O-])c(O)c(Cl)c1C,62 to 63
8,COc1cccc(NC(=S)Nc2cscc2C)c1N,148 to 153
9,O=C(c1cccs1)C(O)c1ccc(F)cc1 (stereo not drawn),90 to 92
10,CCCCCC(=O)C=Cc1ccc(CC(=O)O)s1,51
11,O=C(CSc1ccccc1)Nc1ccccc1C(=O)O,166 to 167
12,CCOC(=O)c1occ(-c2ccccc2)c(=O)c1Br,134
13,COC(=O)[C@H](Cc1ccc(NC(=O)c2c(Cl)cccc2Cl)cc1)NC(=O)C1(CCNC(C)=O)CCCC1,190 to 194
14,CC(O)(c1ccccc1)c1cc(Cl)ccc1O (stereo not drawn),106
15,COC(=O)CSC(c1ccccc1)(c1ccccc1)c1ccccc1,111 to 115
16,O=C(CN1CCC(NC(=O)c2ccccc2)CC1)c1ccccc1,168
17,NC(=O)CCCON1CCNC1=Nc1c(Cl)cccc1Cl,140 to 141
18,Cc1cc(C(=O)NC(C#N)c2ccccc2)n(C)n1 (stereo not drawn),135 to 136
19,CCOP(=O)(OCC)C1C(=O)NC(=O)N1C (stereo not drawn),95 to 96
20,CCCCCCCCCCCCCCCCC[C@H](C[C@H](O)[C@H](CC)C(=O)O)OCc1ccccc1,62 to 63.5

row,Compound,melting point [°C]
1,COC(=O)c1nccnc1N(C)c1ccc(Cl)cc1[N+](=O)[O-],111 to 112
2,COC(=O)CSc1cc(NC(=S)N2CCCN2)c(F)cc1Cl,137 to 141
3,COC(=O)/C=C/c1nc(C(=O)OC)ccc1OC,123 to 126
4,CC(C)CC(SCC1CCCCC1)c1c(O)cc(-c2ccccc2)oc1=O (stereo not drawn),146 to 148
5,N#Cc1ccc(OS(N)(=O)=O)cc1,154 to 156
6,COC(=O)C(C)Oc1ccc(NC(=O)CO)cc1 (stereo not drawn),111 to 113
7,CN(C)/C=c1\c2ccccc2c2[nH]c(=O)c3nccn3c12,293
8,CC(C)(N)C1CN([C@@H]2Cc3ccccc3[C@H]2Oc2ccc(C#N)cc2Cl)C1,93
9,O=[N+]([O-])c1ccc(CS(=O)(=O)CCO)cc1CS(=O)(=O)CCO,211 to 212
10,CC1(C)Oc2ccc(C#N)cc2[C@@H](NC=O)[C@@H]1O (relative stereo),228 to 230
11,CC(C)(C)OC(=O)C(=[N+]=[N-])C(=O)C(C(=O)OC(C)(C)C)[C@H]1NC(=O)[C@@H]1Br (stereo partly drawn),136 to 138
12,NC(=O)c1cc(NCc2ccc(Cl)cc2)c([N+](=O)[O-])cc1[N+](=O)[O-],207 to 210
13,FC(F)(F)c1nc(Cl)c2ccccc2n1,62 to 63.5
14,CCOC(=O)C1=C(C)N(C)C(C)=C(C(=O)OC)C1c1ccccc1C#N (stereo not drawn),175
15,O=C(O)C(=NOC1CCCC1)c1ccco1,96.6 to 97.7
16,CNCCc1c[nH]c2ccc3c(=O)[nH]ccc3c12,160
17,N#CN=C(NCc1ccccn1)Nc1cccc(-c2cccc(S(=O)(=O)NC(CC(=O)O)c3ccccc3)c2)c1 (stereo not drawn),90
18,CC(C)CCC1C(=O)NS(=O)(=O)N1C (stereo not drawn),212 to 214
19,CC(C)C1CC1(O)C(=O)O (stereo not drawn),135 to 138

# The remaining lines, values ahead:
row,melting point [°C],Compound
1,124,COc1ccc(-c2nc(CCCCCCc3nnn[nH]3)oc2-c2ccc(OC)cc2)cc1
2,221 to 222,O=C(NN=Cc1ccc(Cl)cc1)c1[nH]c2ccccc2c1Cc1ccccc1
3,164 to 165,COCCN1CC(C(=O)O)N(S(=O)(=O)c2ccc(OC)cc2)Cc2ccccc21 (stereo not drawn)
4,260 to 263,Cc1ccc2c(c1)C=Cc1cc(C)ccc1C2c1cn(-c2ccnc(NCC(=O)O)n2)c(=O)[nH]c1=O
5,59 to 61,CC(C)c1nc(C2CCCCC2)cc(-c2ccc(F)cc2)c1C=O
6,132 to 134,CCc1nn2c(-c3ccccc3)ccnc2c1C#N
7,175 to 179,ON=Cc1ccc(OCc2csc(-c3ccccc3)n2)cc1
8,282 to 284,COc1ccc(Cc2cccc(-c3c(O)c4ccc(Cl)cc4[nH]c3=O)c2)cc1
9,154,CCCCCCCCOc1ccc(-c2ccc(O)cc2)cc1
10,266 to 270,O=C(Nc1c[nH]nc1C(=O)NCCc1ccc(Br)cc1)c1ccccn1
11,72,O=C(O)c1cccc(OCCCCCCc2cccc(OCc3ccccc3)c2OCc2ccccc2)c1
12,109 to 111,O=C(c1ccc(Cl)cc1)C(Cc1nc[nH]n1)c1ccc(Cl)cc1Cl (stereo not drawn)
13,238 to 240,CN(c1ccc(O)cc1)c1nc2cc(Cl)ccc2s1
14,149 to 150,COc1ccc2nc(SCc3nccc(OCC(F)(F)F)c3OC)[nH]c2c1
15,261 to 265,NC(=O)C1CCN(Cc2cnc3cc(NC(=O)c4ccc(-c5ccc(F)cc5)cc4)ccc3c2)CC1
16,262,Cc1cc(-c2cc(C(F)(F)F)n3ncc(-c4nc(-c5ccc(N)nc5)no4)c3n2)ccc1Cl
17,93 to 95,COc1cc(OC)c([N+](=O)[O-])cc1C(=O)CCCCCl

row,melting point [°C],Compound
1,81 to 83,COc1cc(Sc2ccncc2)cc2ccoc12
2,96 to 98,Nc1ccc(-c2cnc(COCc3cc4ccccc4o3)o2)cc1
3,192 to 194,CCCc1nc2c(N)nc3ccccc3c2n1OCC(N)=O
4,244 to 245,Cc1c(S(=O)(=O)c2ccc(=O)[nH]n2)oc2ccc(C(F)(F)F)cc12
5,78 to 79,CC(O)(CCCl)c1ccc(-c2ccc(F)cc2)cc1 (stereo not drawn)
6,198,CS(=O)c1ccc(-c2nn(Cc3ccc(F)cc3)c(=O)cc2-c2ccc(F)cc2)cc1 (stereo not drawn)
7,160 to 163,COc1cc2c(cc1OC)C1=NNC(c3ccc(Cl)cc3)C1CCC2 (stereo not drawn)
8,218 to 219,O=C(C1CCN(c2ccncn2)CC1)N1CCN(S(=O)(=O)c2ccc3cc(Cl)ccc3c2)CC1
9,180 to 182,O=C(O)Cc1ccc2c(c1)CC(CNS(=O)(=O)c1ccc3ccccc3c1)C2 (stereo not drawn)
10,193 to 194,CC(C)n1nc(-c2cc(C(=O)NCc3ccccn3)cnc2-c2ccccc2)ccc1=O
11,165 to 167,CCOCc1nc2c(N)nc(C)c(C)c2n1CCC1CCN(Cc2ccccc2)CC1
12,127 to 128,CCOC(=O)C(O)=Cc1ccc(Oc2ccccc2)nn1
13,150,COc1ccc(C(=O)c2ccccc2)cc1C(=O)O
14,202 to 205,COc1ccc(NC(=O)c2sccc2S(=O)(=O)Nc2onc(C)c2Br)cc1
15,157 to 160,CC(C)(C)c1csc(-c2cc3cc(CCC(=O)O)ccc3o2)n1
16,233 to 234,OC(c1ccc(Cl)cc1)(c1ccc(Cl)cc1)c1nnc[nH]1
17,148 to 151,CN(C)c1cccc(CNc2nc(Nc3cccc(NS(C)(=O)=O)c3)nc3[nH]cnc23)c1
